Test results taken from publication PMC9322451 (Clinical Pharmacology in Drug Development, 2022).

How the values were obtained:
[1] = Phase 1 part A: safety (TEAEs); format: in vivo, human; conditions: for Any TEAE / Headache (TEAE) / Nasopharyngitis (TEAE) / SAE / Severe TEAE / Skin exfoliation (TEAE) / TEAE leading to death / TEAE leading to discontinuation: Part A
Procedure: The study was conducted sequentially in 2 parts. […] Eligible participants were admitted to the clinical unit for single‐dose evaluation from days −2 to 2 and from days 29 to 31 for steady‐state PK and safety evaluation. Participants self‐administered daily doses after an overnight fast of at least 10 hours on days 4 to 30, with outpatient visits on days 3, 4, 7, 14, 21, 32, 33, and 61 (Figure S1). […] Dosing of the 40‐mg group commenced when the safety of 25 mg was deemed acceptable by both the investigator and the sponsor's (Insmed Incorporated, Bridgewater, New Jersey) medical monitor.
Safety was assessed from the signing of informed consent until the end of study and included the following variables: treatment‐emergent adverse events (TEAEs), serious adverse events (SAEs), clinical laboratory tests (clinical chemistry, hematology, coagulation [part A only], and urinalysis), vital signs, 12‐lead ECG, primary Holter monitoring, and physical examinations (including evaluation of teeth and gingiva, and evaluation of palms and soles). Because of the mechanism of action of brensocatib, findings of hyperkeratosis, periodontitis/gingivitis, and other infections were reported as adverse events of special interest (AESIs). Renal function (part A only) was monitored by measuring serum creatinine and blood urea nitrogen, performing routine urinalysis, and measuring neutrophil gelatinase–associated lipocalin and cystatin.
Adverse events (AEs) observed before the first dosing were recorded as medical history. All medical history and AEs were coded using the Medical Dictionary for Regulatory Activities (version 21.1 or higher). A TEAE was defined as an AE that began or worsened in severity after at least 1 dose of study drug was administered. All AEs experienced by a participant were monitored until the event had resolved, any abnormal laboratory values returned to baseline or stabilized, a satisfactory explanation for the changes was identified, or the participant was lost to follow‐up.

CYP1A2 = test system: CYP1A2; set-up: method as in unpublished data; conditions: ref unpublished data; cited from earlier work
neutrophil elastase = conditions: 10 and 25 mg, patients with non–cystic fibrosis bronchiectasis, WILLOW study; cited from earlier work
CYP2C19 = test system: CYP2C19; set-up: method as in unpublished data; conditions: ref unpublished data; cited from earlier work

Cn1c(=O)oc2ccc(-c3ccc(C[C@@H](C#N)NC(=O)[C@@H]4CNCCCO4)cc3)cc21 [Brensocatib]
Any TEAE ([1]; 10 mg, Japanese (n=8)): 3 (37.5) n (%) | Headache (TEAE) ([1]; 10 mg, Japanese (n=8)): 0 n (%) | Nasopharyngitis (TEAE) ([1]; 10 mg, Japanese (n=8)): 0 n (%) | SAE ([1]; 10 mg, Japanese (n=8)): 0 n (%) | Severe TEAE ([1]; 10 mg, Japanese (n=8)): 0 n (%) | Skin exfoliation (TEAE) ([1]; 10 mg, Japanese (n=8)): 1 (12.5) n (%) | TEAE leading to death ([1]; 10 mg, Japanese (n=8)): 0 n (%) | TEAE leading to discontinuation ([1]; 10 mg, Japanese (n=8)): 0 n (%) | Any TEAE ([1]; 10 mg, White (n=8)): 6 (75.0) n (%) | Headache (TEAE) ([1]; 10 mg, White (n=8)): 1 (12.5) n (%) | Nasopharyngitis (TEAE) ([1]; 10 mg, White (n=8)): 2 (25.0) n (%) | SAE ([1]; 10 mg, White (n=8)): 0 n (%) | Severe TEAE ([1]; 10 mg, White (n=8)): 0 n (%) | Skin exfoliation (TEAE) ([1]; 10 mg, White (n=8)): 0 n (%) | TEAE leading to death ([1]; 10 mg, White (n=8)): 0 n (%) | TEAE leading to discontinuation ([1]; 10 mg, White (n=8)): 0 n (%) | Any TEAE ([1]; 25 mg, Japanese (n=9)): 5 (55.6) n (%) | Headache (TEAE) ([1]; 25 mg, Japanese (n=9)): 3 (33.3) n (%) | Nasopharyngitis (TEAE) ([1]; 25 mg, Japanese (n=9)): 0 n (%) | SAE ([1]; 25 mg, Japanese (n=9)): 0 n (%) | Severe TEAE ([1]; 25 mg, Japanese (n=9)): 0 n (%) | Skin exfoliation (TEAE) ([1]; 25 mg, Japanese (n=9)): 2 (22.2) n (%) | TEAE leading to death ([1]; 25 mg, Japanese (n=9)): 0 n (%) | TEAE leading to discontinuation ([1]; 25 mg, Japanese (n=9)): 0 n (%) | Any TEAE ([1]; 25 mg, White (n=8)): 5 (62.5) n (%) | Headache (TEAE) ([1]; 25 mg, White (n=8)): 1 (12.5) n (%) | Nasopharyngitis (TEAE) ([1]; 25 mg, White (n=8)): 0 n (%) | SAE ([1]; 25 mg, White (n=8)): 0 n (%) | Severe TEAE ([1]; 25 mg, White (n=8)): 0 n (%) | Skin exfoliation (TEAE) ([1]; 25 mg, White (n=8)): 1 (12.5) n (%) | TEAE leading to death ([1]; 25 mg, White (n=8)): 0 n (%) | TEAE leading to discontinuation ([1]; 25 mg, White (n=8)): 0 n (%) | Any TEAE ([1]; 40 mg, Japanese (n=8)): 3 (37.5) n (%) | Headache (TEAE) ([1]; 40 mg, Japanese (n=8)): 0 n (%) | Nasopharyngitis (TEAE) ([1]; 40 mg, Japanese (n=8)): 0 n (%) | SAE ([1]; 40 mg, Japanese (n=8)): 0 n (%) | Severe TEAE ([1]; 40 mg, Japanese (n=8)): 0 n (%) | Skin exfoliation (TEAE) ([1]; 40 mg, Japanese (n=8)): 0 n (%) | TEAE leading to death ([1]; 40 mg, Japanese (n=8)): 0 n (%) | TEAE leading to discontinuation ([1]; 40 mg, Japanese (n=8)): 1 (12.5) n (%) | Any TEAE ([1]; 40 mg, White (n=8)): 5 (62.5) n (%) | Headache (TEAE) ([1]; 40 mg, White (n=8)): 2 (25.0) n (%) | Nasopharyngitis (TEAE) ([1]; 40 mg, White (n=8)): 0 n (%) | SAE ([1]; 40 mg, White (n=8)): 0 n (%) | Severe TEAE ([1]; 40 mg, White (n=8)): 0 n (%) | Skin exfoliation (TEAE) ([1]; 40 mg, White (n=8)): 1 (12.5) n (%) | TEAE leading to death ([1]; 40 mg, White (n=8)): 0 n (%) | TEAE leading to discontinuation ([1]; 40 mg, White (n=8)): 0 n (%) | Any TEAE ([1]; pooled brensocatib (N=49)): 27 (55.1) n (%) | Headache (TEAE) ([1]; pooled brensocatib (N=49)): 7 (14.3) n (%) | Nasopharyngitis (TEAE) ([1]; pooled brensocatib (N=49)): 2 (4.1) n (%) | SAE ([1]; pooled brensocatib (N=49)): 0 n (%) | Severe TEAE ([1]; pooled brensocatib (N=49)): 0 n (%) | Skin exfoliation (TEAE) ([1]; pooled brensocatib (N=49)): 5 (10.2) n (%) | TEAE leading to death ([1]; pooled brensocatib (N=49)): 0 n (%) | TEAE leading to discontinuation ([1]; pooled brensocatib (N=49)): 1 (2.0) n (%) | Renal toxicity assessments ([1]; part A): no signs of acute kidney injury | participants treated with brensocatib who experienced ≥1 TEAE ([1]; part A): 55.1% | AESIs (hyperkeratosis, periodontitis/gingivitis, other infections) ([1]; parts A and B): None of these AESIs were evident | SAEs, severe TEAEs, deaths during the study ([1]; parts A and B): No SAEs, severe TEAEs, or deaths occurred | tolerability ([1]; single and multiple administration 10, 25, and 40 mg for 28 days, healthy Japanese and White participants): well tolerated | CYP induction (significant inducer or not) (CYP1A2): not a significant | effect on neutrophil elastase and clinical outcomes (neutrophil elastase): reduced neutrophil elastase and improved clinical outcomes | CYP inhibition (CYP2C19): no effect
